Laboratory results published in patent US20230000773A1, “NOVEL HEADGROUP LIPID COMPOUNDS AND COMPOSITIONS FOR INTRACELLULAR DELIVERY OF THERAPEUTIC AGENTS” (ModernaTX, Inc., priority 2019, published 2023).
Structures can show the parent of a compound that is named as a salt.

Tests used:
hEPO mRNA = experiment: hEPO expression in CD1-mice after intravenous administration of nanoparticles; assay type: in vivo; settings: 6 h after intravenous administration, mRNA dose 0.5 mg/kg, N:P 3.4, compound:DSPC:cholesterol:PEG 2 50:10:38:2
Protocol: The expression of hEPO mRNA in CD1-mice was measured 6 h after intravenous administration of nanoparticles comprising a compound of the disclosure, DSPC, cholesterol, and PEG 2 in a ratio of 50:10:38:2. […] Each composition was dosed to 8 animals at an mRNA dose of 0.5 mg/kg.

[1] = Surface hydrophobicity by Generalized Polarization by Laurdan (GPL); assay type: physicochemical; settings: normalized Generalized Polarization by Laurdan; higher N-GP = less polar surface
From the text: Nanoparticle compositions including a therapeutic and/or prophylactic can be optimized according to the selection of a compound according to Formula (I), (I-1), (A), (A-1), (A-1a), or (A-1b), the selection of additional lipids, the amount of each lipid in the lipid component, and the wt:wt ratio of the lipid component to the therapeutic and/or prophylactic. Nanoparticle compositions including DSPC as a phospholipid, cholesterol as a structural lipid, PEG 2 as a PEG lipid, and a compound according to Formula (I), (I-1), (A), (A-1), (A-1a), or (A-1b) were prepared. The ratios of the lipids were 50:10:38:2 mol % for the lipid according to Formula (I), (I-1), (A), (A-1), (A-1a), or (A-1b):DSPC:cholesterol:PEG 2.
Laurdan, a fluorescent aminonaphthalene ketone lipid, was post-inserted into the nanoparticle surface and the fluorescence spectrum of Laurdan was collected to determine the normalized Generalized Polarization (N-GP). Higher N-GP indicates a less polar surface.

[2] = Apparent LNP pKa by 2-(p-toluidino)-6-napthalene sulfonic acid (TNS) assay; assay type: physicochemical; settings: pH at half of maximum fluorescence
[3] = Heparin-sepharose binding of nanoparticles

Compound | Avg. [hEPO] mIU/mL (hEPO mRNA) [mIU/mL] | Average N-GP [1] | LogIC50 (pKa) [2] | Relative % Area Bound by LNP [3] [%]
CCCCCCCCC(CC)OC(=O)CCCCCCCN(CCCCCCCC(=O)OC(CCCCCCCC)CCCCCCCC)CCCN/C=C1\NC(=O)NC1=O (mixture of isomers) [Compound 51/52, Heptadecan-9-yl (E/Z)-8-((3-(((2,5-dioxoimidazolidin-4-ylidene)methyl)amino)propyl)(8-oxo-8-(undecan-3-yloxy)octyl)amino)octanoate] | 1.86E+05 | 0.921 | 6.48 | 2.25
CCCCCCCCC(CC)OC(=O)CCCCCCCN(CCCCCCCC(=O)OC(CCCCCCCC)CCCCCCCC)CCCN/C(=N/O)c1nonc1N (racemic) [Compound 55/56, Heptadecan-9-yl (E/Z)-8-((3-(4-amino-N′-hydroxy-1,2,5-oxadiazole-3-carboximidamido)propyl)(8-oxo-8-(undecan-3-yloxy)octyl)amino)octanoate] | 1.37E+05 | – | 5.61 | 0
CCCCCCCCC(CC)OC(=O)CCCCCCCN(CCCCCCCC(=O)OC(CCCCCCCC)CCCCCCCC)CCCNc1nnc(N)[nH]1 (stereo not drawn) [Compound 11, Heptadecan-9-yl 8-((3-((5-amino-4H-1,2,4-triazol-3-yl)amino)propyl)(8-oxo-8-(undecan-3-yloxy)octyl)amino)octanoate] | 1.69E+04 | – | 6.88 | –
CCCCCCCCC(CC)OC(=O)CCCCCCCN(CCCCCCCC(=O)OC(CCCCCCCC)CCCCCCCC)CCCNC(C(=O)NC)C(=O)NC (stereo not drawn) [Compound 16, Heptadecan-9-yl 8-((3-((1,3-bis(methylamino)-1,3-dioxopropan-2-yl)amino)propyl)(8-oxo-8-(undecan-3-yloxy)octyl)amino)octanoate Trifluoroacetate Salt] | 1.72E+05 | 0.595 | 7.01 | 57.65
CCCCCCCCC(CC)OC(=O)CCCCCCCN(CCCCCCCC(=O)OC(CCCCCCCC)CCCCCCCC)CCCNc1nccnc1NC (stereo not drawn) [Compound 25, Heptadecan-9-yl 8-((3-((3-(methylamino)pyrazin-2-yl)amino)propyl)(8-oxo-8-(undecan-3-yloxy)octyl)amino)octanoate, trifluoroacetate Salt] | 4.29E+05 | 0.869 | 7.46 | 0
CCCCCCCCC(CC)OC(=O)CCCCCCCN(CCCCCCCC(=O)OC(CCCCCCCC)CCCCCCCC)CCCNS(=O)(=O)c1ncccn1 (stereo not drawn) [Compound 73, Heptadecan-9-yl 8-((8-oxo-8-(undecan-3-yloxy)octyl)(3-(pyrimidine-2-sulfonamido)propyl)amino)octanoate] | 4.64E+05 | 0.747 | 6.61 | 0
CCCCCCCCC(CC)OC(=O)CCCCCCCN(CCCCCCCC(=O)OC(CCCCCCCC)CCCCCCCC)CCCNS(=O)(=O)Cc1ccccc1 (stereo not drawn) [Compound 74, Heptadecan-9-yl 8-((8-oxo-8-(undecan-3-yloxy)octyl)(3-((phenylmethyl)sulfonamido)propyl)amino)octanoate] | 1.21E+05 | 0.938 | 6.42 | 6.14
CCCCCCCCC(CC)OC(=O)CCCCCCCN(CCCCCCCC(=O)OC(CCCCCCCC)CCCCCCCC)CCCNS(=O)(=O)c1ccnn1COC (stereo not drawn) [Compound 75, Heptadecan-9-yl 8-((3-((1-(methoxymethyl)-1H-pyrazole)-5-sulfonamido)propyl)(8-oxo-8-(undecan-3-yloxy)octyl)amino)octanoate] | 6.24E+05 | 0.831 | 6.50 | 1.97
CCCCCCCCC(CC)OC(=O)CCCCCCCN(CCCCCCCC(=O)OC(CCCCCCCC)CCCCCCCC)CCCNC(=O)CS(=O)(=O)NC (stereo not drawn) [Compound 76, Heptadecan-9-yl 8-((3-(2-(N-methylsulfamoyl)acetamido)propyl)(8-oxo-8-(undecan-3-yloxy)octyl)amino)octanoate] | 1.50E+05 | 0.683 | 6.92 | 31.61
CCCCCCCCC(CC)OC(=O)CCCCCCCN(CCCCCCCC(=O)OC(CCCCCCCC)CCCCCCCC)CCCNC1=NS(=O)(=O)CCN1 (stereo not drawn) [Compound 77, Heptadecan-9-yl 8-((3-((1,1-dioxido-5,6-dihydro-4H-1,2,4-thiadiazin-3-yl)amino)propyl)(8-oxo-8-(undecan-3-yloxy)octyl)amino)octanoate] | 7.75E+04 | 0.824 | 6.80 | 0
CCCCCCCCC(CC)OC(=O)CCCCCCCN(CCCCCCCC(=O)OC(CCCCCCCC)CCCCCCCC)CCCNC(=O)C1CCC(=O)N1 (stereo not drawn) [Compound 78, Heptadecan-9-yl 8-((8-oxo-8-(undecan-3-yloxy)octyl)(3-(5-oxopyrrolidine-2-carboxamido)propyl)amino)octanoate] | 1.11E+05 | 0.622 | 6.94 | 36.14
CCCCCCCCC(CC)OC(=O)CCCCCCCN(CCCCCCCC(=O)OC(CCCCCCCC)CCCCCCCC)CCCNC1=NC(=O)NC1 (stereo not drawn) [Compound 79, Heptadecan-9-yl 8-((3-((2-oxo-2,5-dihydro-1H-imidazol-4-yl)amino)propyl)(8-oxo-8-(undecan-3-yloxy)octyl)amino)octanoate] | 4.04E+04 | 0.683 | 6.23 | 0
CCCCCCCCC(CC)OC(=O)CCCCCCCN(CCCCCCCC(=O)OC(CCCCCCCC)CCCCCCCC)CCCNS(=O)(=O)CC(=O)NC (stereo not drawn) [Compound 80, Heptadecan-9-yl 8-((3-((2-(methylamino)-2-oxoethyl)sulfonamido)propyl)(8-oxo-8-(undecan-3-yloxy)octyl)amino)octanoate] | 7.69E+04 | 0.703 | 6.75 | 10.99
CCCCCCCCC(CC)OC(=O)CCCCCCCN(CCCCCCCC(=O)OC(CCCCCCCC)CCCCCCCC)CCCNC1=C(C#N)C(=O)OC1 (stereo not drawn) [Compound 81, Heptadecan-9-yl 8-((3-((4-cyano-5-oxo-2,5-dihydrofuran-3-yl)amino)propyl)(8-oxo-8-(undecan-3-yloxy)octyl)amino)octanoate Trifluoroacetate Salt] | 4.96E+05 | 0.752 | 6.48 | 0
CCCCCCCCC(CC)OC(=O)CCCCCCCN(CCCCCCCC(=O)OC(CCCCCCCC)CCCCCCCC)CCCNc1nnc(N)s1 (stereo not drawn) [Compound 82, Heptadecan-9-yl 8-((3-((5-amino-1,3,4-thiadiazol-2-yl)amino)propyl)(8-oxo-8-(undecan-3-yloxy)octyl)amino)octanoate Trifluoroacetate Salt] | 2.18E+05 | 0.920 | 6.25 | 1.67
CCCCCCCCC(CC)OC(=O)CCCCCCCN(CCCCCCCC(=O)OC(CCCCCCCC)CCCCCCCC)CCCN/C=N/S(C)(=O)=O (stereo not drawn) [Compound 86, Heptadecan-9-yl (E)-8-((3-(N′-(methylsulfonyl)formimidamido)propyl)(8-oxo-8-(undecan-3-yloxy)octyl)amino)octanoate] | – | 0.737 | 6.59 | 0
